Assay results taken from PubChem BioAssay (NCI).
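Five concentrations, 48 hours, 96-well plates. TGI denotes the concentration required for complete inhibition of growth.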

What was measured:
Experiment in all cases: growth of human tumour cells (NCI), 48 h
OVCAR-4 ovarian = system: OVCAR-4 ovarian
LOX IMVI melanoma = system: LOX IMVI melanoma
786-0 renal = system: 786-0 renal
UO-31 renal = system: UO-31 renal
SF-539 CNS = system: SF-539 CNS
MALME-3M melanoma = system: MALME-3M melanoma
K-562 leukemia = system: K-562 leukemia
DMS 273 small cell lung = system: DMS 273 small cell lung
IGROV1 ovarian = system: IGROV1 ovarian
SK-MEL-2 melanoma = system: SK-MEL-2 melanoma
OVCAR-3 ovarian = system: OVCAR-3 ovarian
LXFL 529 NSCLC = system: LXFL 529 NSCLC
SK-MEL-5 melanoma = system: SK-MEL-5 melanoma
MOLT-4 leukemia = system: MOLT-4 leukemia
SNB-78 CNS = system: SNB-78 CNS
HL-60(TB) leukemia = system: HL-60(TB) leukemia
HOP-62 NSCLC = system: HOP-62 NSCLC
HCT-15 colon = system: HCT-15 colon
A498 renal = system: A498 renal
M19-MEL melanoma = system: M19-MEL melanoma
KM20L2 colon = system: KM20L2 colon
SNB-19 CNS = system: SNB-19 CNS
HOP-92 NSCLC = system: HOP-92 NSCLC
CAKI-1 renal = system: CAKI-1 renal
UACC-257 melanoma = system: UACC-257 melanoma
EKVX NSCLC = system: EKVX NSCLC
U251 CNS = system: U251 CNS
TK-10 renal = system: TK-10 renal
HCC-2998 colon = system: HCC-2998 colon
UACC-62 melanoma = system: UACC-62 melanoma
SF-268 CNS = system: SF-268 CNS
SNB-75 CNS = system: SNB-75 CNS
NCI-H460 lung = system: NCI-H460 lung
NCI-H23 lung = system: NCI-H23 lung
SK-MEL-28 melanoma = system: SK-MEL-28 melanoma
SK-OV-3 ovarian = system: SK-OV-3 ovarian
SW-620 colon = system: SW-620 colon
A549 NSCLC = system: A549 NSCLC
HCT-116 colon = system: HCT-116 colon
NCI-H226 lung = system: NCI-H226 lung
DLD-1 colon = system: DLD-1 colon
CCRF-CEM leukemia = system: CCRF-CEM leukemia
SF-295 CNS = system: SF-295 CNS
COLO 205 colon = system: COLO 205 colon
NCI-H522 lung = system: NCI-H522 lung
OVCAR-5 ovarian = system: OVCAR-5 ovarian
M14 melanoma = system: M14 melanoma
KM12 colon = system: KM12 colon
DMS 114 small cell lung = system: DMS 114 small cell lung
RPMI-8226 leukemia = system: RPMI-8226 leukemia
SN12C renal = system: SN12C renal
ACHN renal = system: ACHN renal
HT29 colon = system: HT29 colon
OVCAR-8 ovarian = system: OVCAR-8 ovarian
XF 498 CNS = system: XF 498 CNS
RXF 393 renal = system: RXF 393 renal
DU-145 prostate = system: DU-145 prostate
SR leukemia = system: SR leukemia
BT-549 breast = system: BT-549 breast
MDA-N = system: MDA-N
MDA-MB-435 = system: MDA-MB-435
T-47D breast = system: T-47D breast
NCI/ADR-RES ovarian = system: NCI/ADR-RES ovarian
HOP-18 NSCLC = system: HOP-18 NSCLC
HS 578T breast = system: HS 578T breast
PC-3 prostate = system: PC-3 prostate
MCF7 breast = system: MCF7 breast
MDA-MB-231 breast = system: MDA-MB-231 breast

Structure (SMILES): Nc1ccc(C(=O)NN2C(=O)C(Cl)C2c2ccc([N+](=O)[O-])cc2)cc1 (centres undefined)
- TGI (OVCAR-4 ovarian): 26.4 µM
- TGI (LOX IMVI melanoma): 5.2 µM
- TGI (786-0 renal): 16.6 µM
- TGI (UO-31 renal): 30.8 µM
- TGI (SF-539 CNS): 25.6 µM
- TGI (MALME-3M melanoma): 25 µM
- TGI (K-562 leukemia): 36.2 µM
- TGI (DMS 273 small cell lung): 17.5 µM
- TGI (IGROV1 ovarian): 16.6 µM
- TGI (SK-MEL-2 melanoma): 31.8 µM
- TGI (OVCAR-3 ovarian): 18.4 µM
- TGI (LXFL 529 NSCLC): 18.2 µM
- TGI (SK-MEL-5 melanoma): 28.8 µM
- TGI (MOLT-4 leukemia): 9.8 µM
- TGI (SNB-78 CNS): 51.7 µM
- TGI (HL-60(TB) leukemia): 4.65 µM
- TGI (HOP-62 NSCLC): 23.2 µM
- TGI (HCT-15 colon): 23.6 µM
- TGI (A498 renal): 38.6 µM
- TGI (M19-MEL melanoma): 28 µM
- TGI (KM20L2 colon): 27.4 µM
- TGI (SNB-19 CNS): 26 µM
- TGI (HOP-92 NSCLC): 37.1 µM
- TGI (CAKI-1 renal): 36.1 µM
- TGI (UACC-257 melanoma): 31.2 µM
- TGI (EKVX NSCLC): 24.4 µM
- TGI (U251 CNS): 5.28 µM
- TGI (TK-10 renal): 33.5 µM
- TGI (HCC-2998 colon): 21.2 µM
- TGI (UACC-62 melanoma): 24.7 µM
- TGI (SF-268 CNS): 12.2 µM
- TGI (SNB-75 CNS): 24.5 µM
- TGI (NCI-H460 lung): 22.1 µM
- TGI (NCI-H23 lung): 35.6 µM
- TGI (SK-MEL-28 melanoma): 20.1 µM
- TGI (SK-OV-3 ovarian): 29.1 µM
- TGI (SW-620 colon): 26.2 µM
- TGI (A549 NSCLC): 25.8 µM
- TGI (HCT-116 colon): 4.31 µM
- TGI (NCI-H226 lung): 34.9 µM
- TGI (DLD-1 colon): 21.8 µM
- TGI (CCRF-CEM leukemia): 14 µM
- TGI (SF-295 CNS): 28.3 µM
- TGI (COLO 205 colon): 29.1 µM
- TGI (NCI-H522 lung): 3.21 µM
- TGI (OVCAR-5 ovarian): 41.6 µM
- TGI (M14 melanoma): 26.5 µM
- TGI (KM12 colon): 23.9 µM
- TGI (DMS 114 small cell lung): 11.2 µM
- TGI (RPMI-8226 leukemia): 42.8 µM
- TGI (SN12C renal): 30 µM
- TGI (ACHN renal): 27 µM
- TGI (HT29 colon): 32.6 µM
- TGI (OVCAR-8 ovarian): 56 µM

Structure (SMILES): COC(=O)c1c(C)cc2c(c1O)C1(O)C(=O)c3cc4c(c(O)c3C(=O)C1(OC)C(O)C2)C(=O)C=C(NC1OC(C)C(OC)C(O)C1OC)C4=O (centres undefined)
- TGI (OVCAR-4 ovarian): 0.213 µM
- TGI (LOX IMVI melanoma): 0.0866 µM
- TGI (786-0 renal): 0.202 µM
- TGI (UO-31 renal): 0.427 µM
- TGI (SF-539 CNS): 0.2 µM
- TGI (MALME-3M melanoma): 0.249 µM
- TGI (K-562 leukemia): 0.178 µM
- TGI (DMS 273 small cell lung): 0.468 µM
- TGI (IGROV1 ovarian): 0.0635 µM
- TGI (SK-MEL-2 melanoma): 0.149 µM
- TGI (OVCAR-3 ovarian): 0.558 µM
- TGI (LXFL 529 NSCLC): 0.205 µM
- TGI (MOLT-4 leukemia): 0.13 µM
- TGI (SNB-78 CNS): 0.324 µM
- TGI (HL-60(TB) leukemia): 0.184 µM
- TGI (HOP-62 NSCLC): 1.26 µM
- TGI (HCT-15 colon): 0.443 µM
- TGI (A498 renal): 0.71 µM
- TGI (M19-MEL melanoma): 0.0516 µM
- TGI (KM20L2 colon): 0.395 µM
- TGI (SNB-19 CNS): 1.22 µM
- TGI (HOP-92 NSCLC): 0.443 µM
- TGI (CAKI-1 renal): 0.806 µM
- TGI (UACC-257 melanoma): 0.0357 µM
- TGI (EKVX NSCLC): 0.864 µM
- TGI (U251 CNS): 0.663 µM
- TGI (TK-10 renal): 0.293 µM
- TGI (HCC-2998 colon): 0.28 µM
- TGI (UACC-62 melanoma): 0.0502 µM
- TGI (XF 498 CNS): 0.235 µM
- TGI (SF-268 CNS): 0.648 µM
- TGI (SNB-75 CNS): 0.277 µM
- TGI (NCI-H460 lung): 0.435 µM
- TGI (NCI-H23 lung): 0.0368 µM
- TGI (SK-OV-3 ovarian): 1.58 µM
- TGI (SW-620 colon): 0.164 µM
- TGI (RXF 393 renal): 0.0525 µM
- TGI (A549 NSCLC): 1.03 µM
- TGI (HCT-116 colon): 0.177 µM
- TGI (NCI-H226 lung): 0.416 µM
- TGI (DLD-1 colon): 0.12 µM
- TGI (CCRF-CEM leukemia): 0.166 µM
- TGI (SF-295 CNS): 0.146 µM
- TGI (COLO 205 colon): 0.186 µM
- TGI (NCI-H522 lung): 0.257 µM
- TGI (OVCAR-5 ovarian): 0.401 µM
- TGI (M14 melanoma): 0.262 µM
- TGI (KM12 colon): 0.562 µM
- TGI (DMS 114 small cell lung): 0.0295 µM
- TGI (RPMI-8226 leukemia): 0.303 µM
- TGI (SN12C renal): 0.243 µM
- TGI (ACHN renal): 0.205 µM
- TGI (HT29 colon): 0.222 µM
- TGI (OVCAR-8 ovarian): 0.14 µM

Structure (SMILES): N#Cc1c(-c2ccc(Cl)cc2)c(-c2ccc(Cl)cc2)nn(CCOC(=O)CCC(=O)O)c1=O
- TGI (DU-145 prostate): 6.86 µM
- TGI (OVCAR-4 ovarian): > 91.6 µM
- TGI (LOX IMVI melanoma): > 84.3 µM
- TGI (786-0 renal): 55.3 µM
- TGI (SR leukemia): 25.6 µM
- TGI (UO-31 renal): 50 µM
- TGI (SF-539 CNS): 1.49 µM
- TGI (MALME-3M melanoma): 74.9 µM
- TGI (K-562 leukemia): 41 µM
- TGI (DMS 273 small cell lung): 14.7 µM
- TGI (IGROV1 ovarian): > 85.3 µM
- TGI (SK-MEL-2 melanoma): 28.2 µM
- TGI (OVCAR-3 ovarian): 0.853 µM
- TGI (BT-549 breast): > 100 µM
- TGI (LXFL 529 NSCLC): > 100 µM
- TGI (SK-MEL-5 melanoma): 2.59 µM
- TGI (MOLT-4 leukemia): 41.3 µM
- TGI (HL-60(TB) leukemia): 10.5 µM
- TGI (HOP-62 NSCLC): 34.8 µM
- TGI (HCT-15 colon): 4.97 µM
- TGI (A498 renal): 9.23 µM
- TGI (M19-MEL melanoma): > 100 µM
- TGI (KM20L2 colon): 4.89 µM
- TGI (SNB-19 CNS): > 49.2 µM
- TGI (HOP-92 NSCLC): 15.2 µM
- TGI (CAKI-1 renal): 22.9 µM
- TGI (UACC-257 melanoma): > 100 µM
- TGI (EKVX NSCLC): > 100 µM
- TGI (MDA-N): 0.202 µM
- TGI (U251 CNS): 40.3 µM
- TGI (TK-10 renal): > 100 µM
- TGI (HCC-2998 colon): 16.1 µM
- TGI (UACC-62 melanoma): 47.7 µM
- TGI (SF-268 CNS): > 72.1 µM
- TGI (SNB-75 CNS): > 75.7 µM
- TGI (NCI-H460 lung): 32.5 µM
- TGI (NCI-H23 lung): 19.6 µM
- TGI (MDA-MB-435): 0.193 µM
- TGI (SK-MEL-28 melanoma): > 85.6 µM
- TGI (SK-OV-3 ovarian): 30.8 µM
- TGI (T-47D breast): > 100 µM
- TGI (SW-620 colon): > 100 µM
- TGI (NCI/ADR-RES ovarian): > 12.9 µM
- TGI (RXF 393 renal): 11.9 µM
- TGI (A549 NSCLC): > 88.6 µM
- TGI (HOP-18 NSCLC): > 100 µM
- TGI (HCT-116 colon): 4.01 µM
- TGI (NCI-H226 lung): 1.42 µM
- TGI (DLD-1 colon): > 100 µM
- TGI (CCRF-CEM leukemia): > 43.6 µM
- TGI (SF-295 CNS): 16.9 µM
- TGI (COLO 205 colon): 2.57 µM
- TGI (NCI-H522 lung): 4.88 µM
- TGI (OVCAR-5 ovarian): > 100 µM
- TGI (HS 578T breast): 59.7 µM
- TGI (M14 melanoma): 28.5 µM
- TGI (KM12 colon): 71.2 µM
- TGI (PC-3 prostate): > 48.4 µM
- TGI (DMS 114 small cell lung): 11.8 µM
- TGI (RPMI-8226 leukemia): > 60 µM
- TGI (SN12C renal): > 60 µM
- TGI (ACHN renal): > 100 µM
- TGI (HT29 colon): 6.39 µM
- TGI (MCF7 breast): > 62.3 µM
- TGI (MDA-MB-231 breast): 28.6 µM
- TGI (OVCAR-8 ovarian): > 78.4 µM
